Legend:
Assay type in all cases: cell-based
[1] = tested on: Paracoccus carotinifaciens strain E-396 (FERM BP-4283)
Method: Subsequently, a medium of the following composition (glucose 30 g/L, filtered corn steep liquor 30 g/L, ammonium sulfate 1.5 g/L, potassium dihydrogen phosphate 1.5 g/L, disodium hydrogen phosphate dodecahydrate 3.8 g/L, calcium chloride dihydrate 5.0 g/L, magnesium sulfate heptahydrate 0.7 g/L, iron sulfate heptahydrate 1.0 g/L, silicon-based defoaming agent 0.2 g/L) was dispensed in 7.2 ml volumes into cotton-plugged test tubes having an inner diameter of 18 mm to prepare 13 test tubes containing a test tube medium for production. The ingredients used to prepare the test tube medium for production were obtained from lots where microbial cells had been confirmed not to grow well.
The 12 trace metals indicated in Table 1 were separately prepared in 0.8 ml volumes to have their final concentrations indicated in Table 1 and then added to the above 12 test tubes for production, respectively. The remaining one test tube was supplemented with 0.8 ml of ion exchanged water.
The resulting culture solution was then inoculated in 0.05 ml volumes into the 13 types of test tube media for production and cultured under shaking at 28° C. for 4 days at 300 spm.

[2] = tested on: Paracoccus carotinifaciens mutant strain CF-358; assay: Example 5: 5 L fermenter culture with cobalt chloride, growth (OD610) and carotenoid levels (HPLC)
Method: (§1) In the following examples, carotenoids were quantified by high performance liquid chromatography (HPLC) as follows.
Two columns of Inertsil SIL-100A, 5 μm (ϕ4.6 mm×250 mm) (GL Sciences Inc., Japan) were connected together for use as a column. For elution, a mixed solution of n-hexane, tetrahydrofuran and methanol (40:20:1) serving as a mobile phase was passed through the column at a flow rate of 1.0 mL per minute at a constant temperature around room temperature. For measurement, samples were each dissolved in tetrahydrofuran and diluted 100-fold with the mobile phase, and 20 μL aliquots of the resulting dilutions were injected into the column. The column eluates were detected at a wavelength of 470 nm. As a standard for quantification, astaxanthin (SIGMA, Cat. No. A9335) was used. The astaxanthin concentration of the standard solution was determined using the following equation after measuring the absorbance (A) of the standard solution at 477 nm and the area percentage % (B) of the astaxanthin peak in HPLC analysis under the above conditions. […]
The ingredients used to prepare the seed flask medium were obtained from lots where microbial cells had been confirmed to grow well.
The resulting culture solution was then inoculated in 80 ml volumes into the individual fermenters, followed by aeration spinner culture at 28° C. under a gauge pressure of 0.01 MPa at an aeration volume of 1.5 vvm for 5 days. To maintain a pH of 7.2 during culture, 15% aqueous ammonia was automatically supplied. The number of spinner rotations was automatically varied such that the dissolved oxygen concentration in each culture solution was maintained at 2 to 4 ppm. An alcohol-based defoaming agent was automatically added to avoid bubbling.
At the completion of culture, the culture solutions were each measured for microbial cell growth by OD610 and measured for carotenoid levels by HPLC (Table 10).

[3] = tested on: Paracoccus sp. strain A-581-1 (FERM BP-4671); assay: Example 6: cobalt concentration series, growth (OD610) and carotenoid levels (HPLC)
Method: as §1
Two columns of Inertsil SIL-100A, 5 μm (ϕ4.6 mm×250 mm) (GL Sciences Inc., Japan) were connected together for use as a column. For elution, a mixed solution of n-hexane, tetrahydrofuran and methanol (40:20:1) serving as a mobile phase was passed through the column at a flow rate of 1.0 mL per minute at a constant temperature around room temperature. For measurement, samples were each dissolved in tetrahydrofuran and diluted 100-fold with the mobile phase, and 20 μL aliquots of the resulting dilutions were injected into the column. The column eluates were detected at a wavelength of 470 nm. As a standard for quantification, astaxanthin (SIGMA, Cat. No. A9335) was used. The astaxanthin concentration of the standard solution was determined using the following equation after measuring the absorbance (A) of the standard solution at 477 nm and the area percentage % (B) of the astaxanthin peak in HPLC analysis under the above conditions.
The ingredients used to prepare the test tube medium for seed culture were obtained from lots where microbial cells had been confirmed to grow well.
The ingredients used to prepare the test tube medium for production were obtained from lots where microbial cells had been confirmed not to grow well.
The resulting culture solution was then inoculated in 0.05 ml volumes into the 7 types of test tube media for production having different cobalt concentrations, and cultured under shaking at 29° C. for 4 days at 300 spm.
After being cultured for 4 days, the culture solutions were each measured for microbial cell growth by OD610 and measure for carotenoid levels by HPLC.

[4] = cobalt added 0.042 μmol/L, total 0.045 μmol/L
[5] = cobalt added 0.42 μmol/L, total 0.42 μmol/L
[6] = cobalt added 4.2 μmol/L, total 4.2 μmol/L
[7] = cobalt added 21 μmol/L, total 21 μmol/L
[8] = cobalt added 0.00042 μmol/L, total 0.0024 μmol/L
[9] = cobalt added 0.0042 μmol/L, total 0.0062 μmol/L
[10] = cobalt added 0.042 μmol/L, total 0.044 μmol/L
[11] = cobalt added 42 μmol/L, total 42 μmol/L

O.O.O.O.O.O.[Cl-].[Cl-].[Co+2] [Cobalt chloride hexahydrate]
microbial cell growth (by OD610), in words [1]: good growth | OD610 ([1]; each trace metal added singly at final concentration of Table 1, shaking at 28° C. for 4 days): 32 | Carotenoid: 3-Hydroxyechinenone [2, 4]: 12 mg/L | Carotenoid: Adonirubin [2, 4]: 273 mg/L | Carotenoid: Adonixanthin [2, 4]: 45 mg/L | Carotenoid: Astaxanthin [2, 4]: 775 mg/L | Carotenoid: Asteroidenone [2, 4]: 11 mg/L | Carotenoid: Canthaxanthin [2, 4]: 90 mg/L | Carotenoid: Echinenone [2, 4]: 37 mg/L | Carotenoid: β-Carotene [2, 4]: 58 mg/L | OD610 [2, 4]: 194 | Total carotenoid [2, 4]: 1302 mg/L | Total carotenoid/dry microbial cells [2, 4]: 41.9 mg/g | Carotenoid: 3-Hydroxyechinenone [2, 5]: 12 mg/L | Carotenoid: Adonirubin [2, 5]: 216 mg/L | Carotenoid: Adonixanthin [2, 5]: 73 mg/L | Carotenoid: Astaxanthin [2, 5]: 815 mg/L | Carotenoid: Asteroidenone [2, 5]: 15 mg/L | Carotenoid: Canthaxanthin [2, 5]: 74 mg/L | Carotenoid: Echinenone [2, 5]: 37 mg/L | Carotenoid: β-Carotene [2, 5]: 60 mg/L | OD610 [2, 5]: 208 | Total carotenoid [2, 5]: 1303 mg/L | Total carotenoid/dry microbial cells [2, 5]: 39.1 mg/g | Carotenoid: 3-Hydroxyechinenone [2, 6]: 5 mg/L | Carotenoid: Adonirubin [2, 6]: 285 mg/L | Carotenoid: Adonixanthin [2, 6]: 18 mg/L | Carotenoid: Astaxanthin [2, 6]: 580 mg/L | Carotenoid: Asteroidenone [2, 6]: 3 mg/L | Carotenoid: Canthaxanthin [2, 6]: 338 mg/L | Carotenoid: Echinenone [2, 6]: 61 mg/L | Carotenoid: β-Carotene [2, 6]: 29 mg/L | OD610 [2, 6]: 191 | Total carotenoid [2, 6]: 1319 mg/L | Total carotenoid/dry microbial cells [2, 6]: 43.2 mg/g | Carotenoid: 3-Hydroxyechinenone [2, 7]: 4 mg/L | Carotenoid: Adonirubin [2, 7]: 347 mg/L | Carotenoid: Adonixanthin [2, 7]: 7 mg/L | Carotenoid: Astaxanthin [2, 7]: 103 mg/L | Carotenoid: Asteroidenone [2, 7]: 1 mg/L | Carotenoid: Canthaxanthin [2, 7]: 431 mg/L | Carotenoid: Echinenone [2, 7]: 103 mg/L | Carotenoid: β-Carotene [2, 7]: 27 mg/L | OD610 [2, 7]: 143 | Total carotenoid [2, 7]: 1023 mg/L | Total carotenoid/dry microbial cells [2, 7]: 44.9 mg/g | total carotenoid production level, in words ([2]; final concentration of 0.042 to 21 μmol/L): high | Astaxanthin [3, 8]: 0.3 mg/L | OD610 [3, 8]: 3 | Total carotenoid [3, 8]: 0.9 mg/L | Astaxanthin [3, 9]: 0.5 mg/L | OD610 [3, 9]: 5 | Total carotenoid [3, 9]: 1.7 mg/L | Astaxanthin [3, 10]: 2.0 mg/L | OD610 [3, 10]: 21 | Total carotenoid [3, 10]: 5.3 mg/L | Astaxanthin [3, 5]: 2.1 mg/L | OD610 [3, 5]: 22 | Total carotenoid [3, 5]: 5.6 mg/L | Astaxanthin [3, 6]: 1.2 mg/L | OD610 [3, 6]: 21 | Total carotenoid [3, 6]: 5.5 mg/L | Astaxanthin [3, 11]: 0.0 mg/L | OD610 [3, 11]: 2 | Total carotenoid [3, 11]: 0.2 mg/L

From patent publication US10947574B2, “Method for producing fermented carotenoid using carotenoid-producing bacteria obtained by using cobalt-containing culturing medium” (ENEOS CORPORATION, priority 2015, dated 2021)
